Assay results taken from patent US12673036B2, “Method of using L-triiodothyronine (T3) for the treatment of tissue hypoxia and sepsis” (UNI-PHARMA KLEON TSETIS PHARMACEUTICAL LABORATORIES S.A., priority 2020, dated 2026).
Like-named read-outs stand apart in the source and are kept apart here.

Legend:
[1] = test system: patients with non-ST-segment elevation myocardial infarction; settings: patients with NSTEMI; cited from earlier work
[2] = test system: xenograft models (non-small cell lung, multiple myeloma, breast, glioblastoma, and ovary); settings: cited from earlier work
isolated rat heart = experiment: Isolated rat heart, prolonged 4 hour hypoxic perfusion ex vivo
Description: (§1) The isolated rat heart model was used to simulate non-ischemic conditions of tissue hypoxia ex vivo. In this study, rat hearts were only perfused with oxygenated Krebs buffer containing electrolytes and glucose under normothermia. Despite normal perfusion, the organ gradually develops significant dysfunction over hours due to the absence of erythrocytes and hemoglobin that create hypoxic conditions. […] It should be noted that such an increase in LVEDP may lead to pulmonary edema in vivo. Furthermore, the force of contraction was reduced as evident by a 25% decrease in left ventricular developed pressure (LVDP) in Control hearts (FIG. 2).

sepsis = settings: rat sepsis models; cited from earlier work
p38 MAPK [3] = settings: T3 40 μg/L, P<0.05, cited from earlier work
male C57BL/6N mice = experiment: Cecal ligation and puncture (CLP) sepsis model; assay type: in vivo
Method: The effect of T3 administration in high dosages in the treatment of tissue hypoxia due to microvascular dysfunction occurring in the myocardium, kidneys and liver is evaluated in a sepsis experimental model using male C57BL/6N mice of 10-12 weeks age. The animal studies were carried out in compliance with all necessary regulations in force.
The simulation of the clinical conditions during sepsis leading to tissue hypoxia and microvascular dysfunction is achieved following the most widely used clinical model of cecal ligation and puncture (CLP). In this experimental model, ligation distal to the ileocecal valve (25% of total cecum length) and perforation by a single 21 G puncture is performed under sevoflurane anesthesia causing leakage of fecal contents into the peritoneum, with subsequent polymicrobial bacteremia and sepsis. The perforation of the cecum allows the release of fecal material into the peritoneal cavity to generate an exacerbated immune response induced by polymicrobial infection. In this model, sepsis causes systemic activation of the inflammatory response, microvascular dysfunction, tissue hypoxia, multi-organ failure, and hemodynamic disorder that results in death as in clinical practice.
The animals are supported by subcutaneous fluid administration every 8 hours and administration of buprenorphine 0.1 mg/kg and paracetamol 300 mg/kg, as is the case with septic patients in the intensive care unit (ICU). All animals are closely monitored for their clinical status based on a modified score scale known as the Lipopolysaccharide (LPS) Score Sheet.
The animals divide into 2 groups: the first group receives placebo (placebo group) and the second group receives intraperitoneally a dose of 0.3 μg T3/g of body weight, immediately after surgery (group T3). Based on guidelines for converting doses from experimental animals to equivalent doses in humans (Nair, A B and Jacob S. A simple practice guide for dose conversion between animals and humans. I Basic C/in Pharma 2016, 7: 27-31), the dose of 0.3 μg T3/g of body weight, corresponds roughly to intravenous administration of 7 μg T3/Kg body weight, i.e., from 400 to 600 μg T3 for a patient weighing 60-80 Kg. This dose is very high and beyond any T3 treatment in hypothyroid patients. The study is performed in two separate experiments. In the first experimental protocol, the clinical condition of the animals and mortality after 72 hours is examined, while in the second experimental protocol, tissue hypoxia at the cellular level after euthanasia at 18 hours is studied.
Initially, lactate levels in blood samples are measured (using L-lactate assay kit from Sigma-Aldrich, MAK329) as a general indicator of hypoxia, which is also commonly used in clinical practice in patients with sepsis. Furthermore, creatinine levels in blood are measured as an indicator of renal function (using the Mouse Creatinine Kit Cat. 80350, Crystal Chem). Finally, an echocardiographic analysis is performed in order to evaluate the end-diastolic and end-systolic volume, the ejection fraction and the pulse volume according to the Simpson rule.
Echocardiographic analysis was performed after mild anesthesia with sevoflurane (0.8%) and placing the animal in a heated blanket. Echocardiographic images were then taken along the longitudinal and transverse sternal axis with the Vivid 7 version Pro ultrasound system (GE Healthcare, Wauwatosa, Wisconsin), equipped with a 14.0-MHz probe (i13L).
Tissue hypoxia at the cellular level is determined in frozen fixed tissues in 4% paraformaldehyde based on the standard method of pimonidazole administration using the Hypoxyprobe™ Plus kit. Pimonidazole is dissolved and administered intravenously in mice at a dose of 60 mg/kg, 2 hours before euthanasia. After intracardiac infusion with paraformaldehyde, the organs are fixed, removed and dehydrated for 5 days in 30% sucrose solution. […]

p38 MAPK [4] = experiment: p38 MAPK activation in isolated rat heart after 4 hours hypoxic perfusion; settings: after 4 hours of prolonged hypoxic perfusion, p<0.05
Description: as §1

[5] = 40 μg/L after first 30 min of hypoxic perfusion, 4 hours
[6] = 18 hours after sepsis induction

In the case of `Cc1c(F)cc(C(=O)NC2CC2)cc1-c1ccc(C(=O)NCC(C)(C)C)cn1` [Losmapimod], the myocardial protective effects [1] is listed as “presented myocardial protective effects”.
For `CC(C)(C)Cn1c(N)nc2ccc(-c3[nH]c(C(C)(C)C)nc3-c3ccc(F)cc3)nc21` [Ralimetinib], the “antineoplastic activity as a single agent” value [2] is listed as “demonstrated antineoplastic activity”.
With `N[C@@H](Cc1cc(I)c(Oc2ccc(O)c(I)c2)c(I)c1)C(=O)O` [T3, L-triiodothyronine] the diastolic dysfunction (isolated rat heart; [5]) was “attenuated diastolic dysfunction”, the “left ventricular end-diastolic pressure (LVEDP)” value (isolated rat heart; [5]) was “maintained LVEDP at normal values” and the “force of contraction (left ventricular developed pressure, LVDP)” value (isolated rat heart; 40 μg/L, after 4 hours) was “improved force of contraction”. For the same compound, the “perfusion pressure of coronary vessels (microvascular dysfunction)” value (isolated rat heart; after 4 hours hypoxic perfusion) was “lower perfusion pressure”, the cytokine storm (sepsis) was “reduce cytokine storm” and the “lung function and surfactant synthesis” value (sepsis) was “maintain lung function and surfactant synthesis”. The survival (sepsis) was “improve survival”, the “phospho-p38 MAPK levels, less than control” value (p38 MAPK [3]; after 5 minutes of reperfusion) was 2.3 fold and the “phospho-p38 MAPK levels, less than control” value (p38 MAPK [3]; after 15 minutes of reperfusion) was 2.1 fold. The creatinine levels (male C57BL/6N mice; 18 hours after sepsis) was “did not increase”, the “hepatic tissue hypoxia (pimonidazole)” value (male C57BL/6N mice; 18 hours after sepsis) was “statistically significant reduction” and the “renal tissue hypoxia (pimonidazole) in OSOM and ISOM” value (male C57BL/6N mice; 18 hours after sepsis) was “significantly reduce”. For the same compound, the “ejection fraction (echocardiography)” value (male C57BL/6N mice; [6]) was “within normal range”, the “pulse volume (echocardiography)” value (male C57BL/6N mice; [6]) was “within normal range” and the “lactic acid levels in blood” value (male C57BL/6N mice; 18 hours after sepsis, 0.3 μg T3/g i.p.) was “decrease”. For the same compound, the “myocardial tissue hypoxia, pimonidazole-positive tissue of the left ventricular total tissue” value (male C57BL/6N mice; 18 hours, p=0.028 vs placebo) was 1.5%±0.5, the “lactic acid levels in blood” value (male C57BL/6N mice; 24 hours after sepsis, 0.3 μg T3/g i.p.) was “decrease” and the animals surviving (male C57BL/6N mice; 72 hours after CLP, 0.3 μg T3/g i.p.) was “up to 20%”. The heart rate (male C57BL/6N mice; after sepsis induction) was “within normal range” and the “prevention of p38 MAPK activation” value (p38 MAPK [4]) was 3 fold.
